Results on 92 compounds are retold here after PubChem BioAssay AID434951 (Broad Institute, 2010).

A word on the EC50: it is the concentration that produces a half-maximal response.

Activity calls are given as the source filed them.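 The calls were made as follows: active = a fitted half-maximal concentration EC50 for the rise in nuclear signal no higher than ten times the top dose tested; inconclusive = flat fit with activity between 30% and 70%, or unusable fit; inactive = EC50 beyond ten times the top dose.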

Chain of Hypoxia-inducible factor 1-alpha (Homo sapiens) (Q16665 whole entry, looked up): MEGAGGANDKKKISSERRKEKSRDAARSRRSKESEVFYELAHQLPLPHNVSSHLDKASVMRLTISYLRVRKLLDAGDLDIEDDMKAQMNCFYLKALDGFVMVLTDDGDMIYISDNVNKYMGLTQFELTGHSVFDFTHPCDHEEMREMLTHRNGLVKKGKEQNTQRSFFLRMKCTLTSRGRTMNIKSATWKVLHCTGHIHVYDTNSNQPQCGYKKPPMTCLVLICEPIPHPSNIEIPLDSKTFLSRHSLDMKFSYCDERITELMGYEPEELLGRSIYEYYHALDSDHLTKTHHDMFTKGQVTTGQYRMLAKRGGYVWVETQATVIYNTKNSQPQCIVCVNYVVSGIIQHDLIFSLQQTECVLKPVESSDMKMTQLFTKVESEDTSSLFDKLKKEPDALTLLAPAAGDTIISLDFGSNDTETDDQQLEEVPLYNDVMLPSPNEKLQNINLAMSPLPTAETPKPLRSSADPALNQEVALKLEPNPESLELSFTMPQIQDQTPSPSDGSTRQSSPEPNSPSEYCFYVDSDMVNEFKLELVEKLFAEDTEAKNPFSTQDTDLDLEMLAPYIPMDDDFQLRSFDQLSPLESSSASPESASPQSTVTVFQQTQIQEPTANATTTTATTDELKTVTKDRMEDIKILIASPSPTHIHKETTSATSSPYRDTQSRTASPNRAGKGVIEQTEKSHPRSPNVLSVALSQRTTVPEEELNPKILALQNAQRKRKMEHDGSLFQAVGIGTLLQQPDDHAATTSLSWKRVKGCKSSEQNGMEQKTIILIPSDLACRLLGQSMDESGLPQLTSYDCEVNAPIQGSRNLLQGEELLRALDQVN

The experiment has as its target Hypoxia-inducible factor 1-alpha (Homo sapiens) (UniProt Q16665). The experiment in a line: HIF pathway activation, GFP-HIF1alpha translocation – imaging, fluorescence, U2OS GFP-HIF1alpha, confirmation (AID 434951). The following applies: U2OS GFP-HIF1alpha nuclear intensity, high-content imaging.
For the compound `Cc1ccsc1C(=O)N/N=C/c1ccc([N+](=O)[O-])cc1`, the EC50 was > 35 µM (inactive).
The value for `CCN1CCN(c2ncnc3ccc(Br)cc23)CC1` was > 35 µM (inactive); that for `Cc1c(Cl)cccc1NC(=S)N/N=C/c1ccccc1Cl` was 14.8 µM.
`CCc1nc(N2CCN(C(=O)c3ccco3)CC2)c2c3c(sc2n1)CCCC3`: the EC50 is > 35 µM (inactive).
The value for `Oc1c(C=C2N=c3ccccc3=N2)sc(=S)n1-c1ccccc1` was > 35 µM (inactive); that for `COc1cnc(-c2ccccn2)nc1NC(C)C` was 1.85 µM.
For the compound `C(=N\Nc1nc2ccccc2[nH]1)/c1cccc2cccnc12`, the EC50 was 12 µM.
As for `C/C(=N\Nc1ccc2nncn2n1)c1ccccn1`, the figure is 3.84 µM.
For the compound `CCCCOC(=O)c1ccc(NC(=O)C(=O)NCc2cccnc2)cc1`, the EC50 is > 35 µM (inactive).
`COc1ccc(CC(NC(C)=O)C(=O)NC2CCN(C(=O)Nc3ccc(Cl)cc3)CC2)cc1OC` (configuration not stated): the EC50 was > 35 µM (inactive).
As for `COC(=O)CNC(=O)CSc1nnc2cc(C)c3ccccc3n12`, the EC50 was > 35 µM (inactive).
The value for `CCCCCCCC1CC(=O)C=C(C)C1C(=O)OCC` (configuration not stated) was > 35 µM (inactive).
The value for `O=C(NCC1CCCO1)c1cc(-c2ccc(F)cc2)no1` (configuration not stated) was 32.6 µM.
As to `O=C(N/N=C\c1cc(Cl)ccc1O)c1ccc(S(=O)(=O)N2CCCCC2)cc1`, the EC50 was 5.75 µM.
Regarding `CCOC(=O)C1CCCN(C(=O)c2ccc3oc(CCc4ccccc4)nc3c2)C1` (configuration not stated), the EC50 is > 35 µM (inactive).
For `COc1ccc(N2CCN(C(=O)CN(C)S(=O)(=O)c3cc(C)ccc3OC)CC2)cc1`, the EC50 is > 35 µM (inactive).
As for `Cc1ccc(C)c(CNS(=O)(=O)c2ccc3c(c2)C(C)(C)C(=O)N3C)c1`, the figure is > 35 µM (inactive); as for `Cc1ccc(Cl)cc1N1CCN(CC(O)COCc2ccco2)CC1` (configuration not stated), > 35 µM (inactive); as for `COc1cccc(/C=N/Nc2nccnc2Cl)c1O`, 6.36 µM.
Turning to `Cc1cc(C)c2nc(NNC(=O)c3ccc(S(=O)(=O)N4CCCC(C)C4)cc3)sc2c1` (configuration not stated), the EC50 was 7.23 µM.
Turning to `O=C(CSC1=NNC(c2ccccn2)S1)Nc1ccc(C(F)(F)F)cc1` (configuration not stated), the EC50 was 10.4 µM.
As for `C1CC1Cc1noc(CN2CCN(CC3CC3)CC2)n1`, the figure is > 35 µM (inactive); as for `Cc1ccc(CNC(=O)NC2CCCCC2)cc1`, > 35 µM (inactive).
For the compound `COc1cc(CC(=O)Nc2ccc(Cl)c(C(F)(F)F)c2)cc(OC)c1OC`, the EC50 was > 35 µM (inactive).
Regarding `Oc1ccc(N=Nc2ccc3c(c2)OCCO3)c2cccnc12`, the EC50 is > 35 µM (inactive).
As for `Cc1ccc(/C=C(\C#N)c2nn(-c3ccccc3)c(N)c2C#N)cc1`, the figure is > 35 µM (inactive).
With `CCOC(=O)CCS(=O)(=O)c1nc(-c2ccccc2)cc(C(F)(F)F)n1`, the EC50 is > 35 µM (inactive).
In the case of `COc1cc(SC)ccc1C(=O)Nc1ccc(C)cc1C`, the EC50 was > 35 µM (inactive).
On to `CCOC(=O)c1c(NS(=O)(=O)c2ccccc2)n(CCCOC)c2nc3ccccc3nc12`, for which the EC50 was > 35 µM (inactive).
Consider `Cc1ccc(S(=O)(=O)Nc2cc(-c3ccc(Cl)cc3)nn2C)cc1`, for which the EC50 is > 35 µM (inactive).
For the compound `COc1cccc(C(NC(C)=O)c2ccc3cccnc3c2O)c1` (configuration not stated), the EC50 is 5.94 µM.
As for `Cc1cc(C)nc(Sc2ncnc(N)c2[N+](=O)[O-])n1`, the EC50 was 20.6 µM.
On to `Cc1ccnc(NS(=O)(=O)c2cc([N+](=O)[O-])ccc2C)c1`, for which the EC50 is > 35 µM (inactive).
On to `CCOC(=O)c1ccc(S(=O)(=O)NNC(=O)COc2ccccc2C)cc1`, for which the EC50 is > 35 µM (inactive).
With `C=CCOc1nc(-c2ccccc2Cl)nc2ccccc12`, the EC50 is > 35 µM (inactive).
As to `CCN(C(=O)CSc1ncn[nH]1)C1CCCCC1`, the EC50 is > 35 µM (inactive).
As for `COc1cccc(/C=N/Nc2cc(-n3nc(C)cc3-c3ccccc3)ncn2)c1O`, the EC50 was 12.5 µM.
Consider `COc1cnc(-c2ccccn2)nc1N(C)c1ccccc1`, for which the concentration giving a half-maximal response (EC50) was 9.27 µM.
`CCOc1ccccc1N(CC(=O)N/N=C/c1cc(Br)ccc1OC)S(C)(=O)=O`: the EC50 is > 35 µM (inactive).
As for `COc1ccc(N2CCN(c3ccc(N4C(=O)CC(C)C4=O)cc3[N+](=O)[O-])CC2)cc1` (configuration not stated), the figure is > 35 µM (inactive); as for `CC1(C)CC(=O)C(C=NCCN2CCN(C(=S)Nc3cccc(Cl)c3)CC2)=C(O)C1`, > 35 µM (inactive).
Consider `CCC1CCc2sc(C(=O)O)cc2C1` (configuration not stated), for which the EC50 is > 35 µM (inactive).
As for `CN(C)c1ccc(CNC(=O)CCS(=O)(=O)c2ccc3c(c2)oc(=O)n3C)cc1`, the EC50 was > 35 µM (inactive).
The value for `Cc1ccc(C(=O)CSc2ccc(-c3ccncc3)nn2)cc1` was > 35 µM (inactive).
Consider `Cc1ccc(Nc2nc(CSc3nnc(-c4ccncc4)n3C)cs2)cc1`, for which the EC50 was > 35 µM (inactive).
As for `CCN(CC)CCNc1cc(C)nc2c1C(=O)C(=O)C=C2N1CCCCC1`, the EC50 was 3.63 µM.
As for `COc1ccc(N2CCN(C(=O)C3COc4ccccc4O3)CC2)cc1` (configuration not stated), the figure is > 35 µM (inactive); as for `COc1cccc(-c2cc(C(F)(F)F)n3nc(C(=O)N4CCC5(CC4)OCCO5)cc3n2)c1`, > 35 µM (inactive).
The value for `CS(=O)(=O)c1ccc2nc(NC(=O)C3CC(=O)N(c4ccc(F)cc4)C3)sc2c1` (configuration not stated) was > 35 µM (inactive); that for `O=C(Nc1ccccc1)N(C1=NCCCCS1)c1cccc2ccccc12` was > 35 µM (inactive); that for `CCCn1c2ccccc2c2cnn(CC(=O)NC3CCCC(C)C3C)c(=O)c21` (configuration not stated) was 7.26 µM.
For the compound `O=C(NCc1ccc(F)cc1)C1CCN(S(=O)(=O)N2CCOCC2)CC1`, the EC50 is > 35 µM (inactive).
For `COc1ccc(C2(C)NC(=O)NC2=O)cc1OC` (configuration not stated), the EC50 was > 35 µM (inactive).
As to `Cc1nc2ccccc2nc1N/N=C/c1ccc(O)cc1O`, the EC50 is 36.5 µM.
For the compound `Cn1c(N/N=C/c2cc3ccccc3nc2Cl)nc2ccccc21`, the EC50 was 18.1 µM.
As for `O=C(/C=C/c1ccc2c(c1)OCO2)Nc1cccnc1`, the figure is > 35 µM (inactive); as for `C=CCc1c(C)nc2c(-c3ccccc3)cnn2c1N1CCOCC1`, > 35 µM (inactive).
`CCC(=O)NC(c1ccccc1OC)c1ccc2cccnc2c1O` (configuration not stated): the EC50 was 6.11 µM.
As for `NS(=O)(=O)c1ccc(CNC(=O)c2csc3c2CCCC3)cc1`, the figure is > 35 µM (inactive); as for `O=C(N/N=C/c1cc(Br)ccc1O)C(=O)Nc1ccccc1OC(F)(F)C(F)F`, 35.2 µM; as for `Oc1ccc2ccccc2c1N=Nc1ccccn1`, 9 µM.
In the case of `COc1ccc2[nH]c(C(=O)N/N=C/c3ccc(O)cc3O)cc2c1`, the 50% effective concentration (EC50) was 8.67 µM.
Consider `O=C(c1ccc(-c2nnc(-c3ccccc3)o2)cc1)N1CCCCCC1`, for which the EC50 is > 35 µM (inactive).
As for `CCC(=O)NC(c1ccc(OC)cc1)c1cc(Cl)c2cccnc2c1O` (configuration not stated), the EC50 is 11.8 µM.
With `CC(=O)Nc1ccc(S(=O)(=O)/N=C2\C(=O)c3ccccc3C([O-])=C2n2cc[n+](-c3ccccn3)c2)cc1`, the EC50 is > 35 µM (inactive).
As for `CCN(CC)CCCNC(=O)C1c2ccccc2C(=O)N(C)C1c1ccc(OC)cc1` (configuration not stated), the figure is > 35 µM (inactive); as for `O=[N+]([O-])c1cccnc1N/N=C/c1ccccc1O`, 34.5 µM; as for `COc1ccccc1OCc1nnc(SCC(=O)NCc2ccco2)n1-c1ccccc1`, > 35 µM (inactive).
The value for `O=C(N/N=C/c1ccc(O)cc1O)c1ccc(CN2C(=O)c3cccc4cccc2c34)cc1` was 19.6 µM; that for `CCC1CCCCN1Cc1c(O)ccc2c(=O)c(-c3ccccc3OC)coc12` (configuration not stated) was > 35 µM (inactive); that for `COc1ccc(CC(NC(C)=O)C(=O)NC2CCN(C(=O)c3cccc(Cl)c3)CC2)cc1OC` (configuration not stated) was > 35 µM (inactive).
As for `CCOc1ccc2c(C)c(Cl)c(=O)oc2c1`, the EC50 is > 35 µM (inactive).
As for `Cc1c(C(=O)N2CCCCC2)c(S(=O)(=O)NCCc2ccc(Cl)cc2)c(C)n1C`, the figure is > 35 µM (inactive).
For `CCOc1nc(Nc2ccc(OC)cc2)nc(OCC)n1`, the EC50 is > 35 µM (inactive).
For the compound `Cc1ccc(CNc2ccc3c(c2)nc(C)n3C)cc1`, the EC50 was > 35 µM (inactive).
Consider `CCOC(=O)c1c(NC(=O)CN2C(=O)NC3(CCC(C)CC3)C2=O)sc(C)c1-c1ccc(C)cc1` (configuration not stated), for which the 50% effective concentration (EC50) is 7.59 µM.
As for `O=C(CSc1nnc(-c2ccccc2Cl)o1)N1CCOCC1`, the EC50 was > 35 µM (inactive).
Consider `CCOc1ccc(C(=O)NCC2CCCO2)cc1OCC` (configuration not stated), for which the EC50 was > 35 µM (inactive).
Turning to `Fc1cccc(/C=N/Nc2nccnc2Cl)c1`, the EC50 is > 35 µM (inactive).
In the case of `COc1ccccc1NC(=O)C1CCN(C(=O)c2ccc(C(C)(C)C)cc2)CC1`, the EC50 is > 35 µM (inactive).
As for `COc1ccc(OC)c(NC2=NCCCS2)c1`, the figure is > 35 µM (inactive); as for `Cc1ccc(Nc2c3c(nc4ccccc24)CCC3)cc1`, > 35 µM (inactive).
Turning to `Cc1ccc2nc(SCC(=O)N3CCCCCC3)nc(=O)n2c1`, the EC50 was > 35 µM (inactive).
With `CCCCN(C(=O)c1c(C)[nH]c(C(=O)OCC)c1C)c1ccccc1`, the EC50 was > 35 µM (inactive).
As to `CCN(CC)c1ccc(/C=N/NC(=O)c2cnccn2)c(O)c1`, the EC50 was 9.54 µM.
With `COc1ccc(Nc2nc(N/N=C/c3ccc(N(C)C)cc3)nc(C)c2[N+](=O)[O-])cc1`, the EC50 is > 35 µM (inactive).
`COc1ccccc1N1CCN(CCCNC(=O)C2CCCN(c3ncnc4c3nc3n4CCCCC3)C2)CC1` (configuration not stated): the EC50 was > 35 µM (inactive).
Take `O=S(=O)(/C=C/c1ccccc1)N1CCNCC1`: the EC50 was > 35 µM (inactive).
Take `Cc1cc(=O)oc2cc(OCC(=O)N3CCN(c4ccc(F)cc4)CC3)ccc12`: the EC50 was > 35 µM (inactive).
As for `CC(=O)Nc1ccc(S(=O)(=O)Nc2ccc(S(=O)(=O)Nc3nccs3)cc2)cc1`, the EC50 is > 35 µM (inactive).
In the case of `O=C(NS(=O)(=O)c1ccc2c(c1)OCCO2)c1ccccc1`, the EC50 was > 35 µM (inactive).
Regarding `O=C(c1cccnc1)c1cc2ccccc2[nH]1`, the EC50 was > 35 µM (inactive).
